Series [1] deals with HCT116 colon cancer cell. The series can be described thus: Growth inhibition of HCT116 colon cancer cell (GI50). Format: cell-based, human. Conditions: Homo sapiens, HCT-116; concentration at which growth of HCT116 colon cancer cell was inhibited to the 50%. The protocol: (§1) Colon cancer cell of human SW620(ATCC) or HCT116 (ATCC) was transferred to T25 flask(culture 7.5 ml) by RPMI1640 (Gibco/BR) medium or DMEM medium (Gibco/BR) containing 10% FBS (fetal bovine serum), respectively. Thereafter the cell was incubated for 12 hours at 37° C. in incubator. After the cell was incubated for 12 hours, 7.5 μl of DMSO was added to a culture used as control group, for the final concentration to be 0.1%. In order to use in experiment, samples of various concentrations were prepared by dissolving the cinnamaldehyde derivatives of the present invention in DMSO. 7.5 μl of the prepared samples was added to a culture used as experimental group. Cell of control or experimental group was incubated for 48 hours.
(§2) HCT116 GI50 (μM) and SW620 GI50 (μM) mean to be the concentrations at which growth of HCT116 and SW620 colon cancer cell was inhibited to the 50%, respectively.

For series [2], the system named is SW620 colon cancer cell. The series can be described thus: Growth inhibition of SW620 colon cancer cell (GI50). Type of series: cell-based, human. The conditions noted are these: Homo sapiens, SW-620; concentration at which growth of SW620 colon cancer cell was inhibited to the 50%. As to the method: as §1, §2
Series [3] relates to SW620 colon cancer cell. The series can be described thus: Cell cycle analysis (Experimental Example 1), SW620. Type of series: cell-based, human. The conditions noted are these: SW620, 1 μM, 48 hours, percentage of cells in G2/M. The protocol: as §1
(§3) For cell cycle analysis, incubated cell was removed from medium. Thereafter the incubated cell was separated from the flask by trypsin. Thus the cell was centrifuged at 300 g for 5 min. The cell was washed with phosphate buffer solution (PBS) to remove the residue medium from the cell. 3 ml of ethanol (70%) was added to the cell. The cell was fixed by being positioned at −20° C. for 12 hours. The fixed cell was centrifuged at 300 g for 3 min and washed with the cold PBS for two times to remove residual ethanol. The cell solution prepared by adding 500 μl of PBS to the cell was well mixed to produce the homogeneous state. 100 μg/ml RNase A 50 μl was added to the cell solution, thereafter the resulting cell solution was positioned at 37° C. for 30 min. The chromosomal DNA was stained by further adding 1 mg/ml propidium iodide (soluble in PBS) thereto.
(§4) Distribution of cell cycle of 20,000 stained cells were measured by using Becton-Dickinson FACS caliber (San Jose, Calif., USA).

The test system of series [4] is HCT116 colon cancer cell. The series can be described thus: Cell cycle analysis (Experimental Example 1), HCT116. Format: cell-based, human. Conditions: HCT116, 1 μM, 48 hours, percentage of cells in G2/M. The protocol:
as §1, §3, §4

Series [5] relates to HCT116 colon cancer cell. The series can be described thus: Cell cycle distribution (Experimental Example 2), HCT116. Type of series: cell-based, human. As to the method:
(§5) SW620 or HCT116 as colon cancer cell was inoculated in 100 mm plate to the amount of 2×10^6 cells. Then, cinnamaldehyde derivative of the present invention (compound 16 or compound 35) was added to the plate in the concentration of 1 μM. Thereafter, the colon cancer cell was incubated for 48 hours. Trypsin was added to the plate, to separate the colon cancer cell from the plate. And 5 ml of PBS (phosphate buffer solution) was added to the plate, to prepare the cell mixture. The cell mixture was centrifuged at 1,500 rpm for 5 min for two times, to remove trypsin from the mixture. The residue was washed with PBS for two times, thus the resulting supernatant was discarded. 1 ml of PBS and 3˜5 ml of cool ethanol(70%) was added to the resulting residue. The cell was fixed by being positioned at −20° C. for 12 hours. The fixed cell was centrifuged at 1,500 rpm for 5 min and washed with the cool PBS for two times to remove residual ethanol. RNase(10 μg/ml) was added to the fixed cell, to remove RNA. And DNA of the fixed cell was dyed with PI(propidium iodide, 50 μg/ml). After the fixed cell was positioned at 37° C. for 30 min, cell cycles of 20,000 cells were measured by using Becton-Dickinson FACS caliber (San Jose, Calif., USA).
(§6) For control group, the same procedure was accomplished except that DMSO was used in place of the cinnamaldehyde derivative.

In series [6] the test system is SW620 colon cancer cell. The series can be described thus: Cell cycle distribution (Experimental Example 2), SW620. Type of series: cell-based, human. Conditions: SW620, 1 μM, 48 hours. The protocol: as §5, §6

Take `O=CC(=Cc1ccccc1OCc1ccccc1)C(C=O)=Cc1ccccc1OCc1ccccc1` [Compound 16, 2,3-bis-(2-benzyloxy-benzylidene)succinaldehyde]: the melting point lay within 120 to 121 °C. Halving of growth in the series with HCT116 colon cancer cell [1] (GI50) required 1.41 µM. This molecule also came in with a GI50 with SW620 colon cancer cell [2] of 0.63 µM. The “G2/M at 1 μM(%) SW620” value with SW620 colon cancer cell [3] amounted to 80%. The “G2/M at 1 μM(%) HCT116” value with HCT116 colon cancer cell [4] was 43%. Also, in the series with HCT116 colon cancer cell [5] (HCT116, 1 μM, 48 hours), the “Amount of cell (%) G0-G1” value was determined as 22.36%, the “Amount of cell (%) G2-M” value is listed as 43.29% and the “Amount of cell (%) S” value is 34.35%. Further, the “Holding of cancer cell in stage G2/M (in words)” value in the series on HCT116 colon cancer cell [5] (HCT116 and SW620, 1 μM, summary of table 3) is listed as “held a cancer cell in the stage G2/M”. In the series with SW620 colon cancer cell [6], the “Amount of cell (%) G0-G1” value turned out to be 6.64%, the “Amount of cell (%) G2-M” value came out at 80.21% and the “Amount of cell (%) S” value was determined as 13.15%.
Take `CC(C)Oc1cccc(C=C(C=O)C(C=O)=Cc2cccc(OC(C)C)c2)c1` [Compound 21, 2,3-bis-(3-isopropyloxy-benzylidene)succinaldehyde]: the melting point lay in the range of 116 to 117 °C. This molecule also registered a GI50 in the series on HCT116 colon cancer cell [1] of 4.23 µM. The GI50 in the series on SW620 colon cancer cell [2] was determined as 0.61 µM. For the same molecule, the “G2/M at 1 μM(%) SW620” value in the series on SW620 colon cancer cell [3] is 74%. Besides, the “G2/M at 1 μM(%) HCT116” value with HCT116 colon cancer cell [4] was determined as 75%.
For the molecule `O=CC(=Cc1cccc(OCc2ccccc2)c1)C(C=O)=Cc1cccc(OCc2ccccc2)c1` [Compound 22, 2,3-bis-(3-benzyloxy-benzylidene)succinaldehyde], the melting point was 126 to 127 °C. The same molecule showed a GI50 with HCT116 colon cancer cell [1] of 7.59 µM. The molecule further registered a GI50 with SW620 colon cancer cell [2] of 3.58 µM. Further, the “G2/M at 1 μM(%) SW620” value in the series on SW620 colon cancer cell [3] was 65%. In addition, in the series on HCT116 colon cancer cell [4], the “G2/M at 1 μM(%) HCT116” value worked out at 68%.
The like results for `CCCOc1ccc(C=C(C=O)C(C=O)=Cc2ccc(OCCC)c(OC)c2)cc1OC` [Compound 23, 2,3-bis-(4-propyloxy-3-methoxybenzylidene)succinaldehyde] were, in that order, 95 to 96 °C, 0.62 µM, 2.28 µM, 56% and 50%.
The like results for `COc1cc(C=C(C=O)C(C=O)=Cc2ccc(OC(C)C)c(OC)c2)ccc1OC(C)C` [Compound 24, 2,3-bis-(4-isopropyloxy-3-methoxy-benzylidene)succinaldehyde] were, in that order, 119 to 120 °C, 0.71 µM, 0.91 µM, 55% and 48%.
Regarding `COc1cc(C=C(C=O)C(C=O)=Cc2ccc(OC(C)=O)c(OC)c2)ccc1OC(C)=O` [Compound 25, 2,3-bis-(4-acetyloxy-3-methoxy-benzylidene)succinaldehyde], the melting point was 149 to 151 °C. In the series with HCT116 colon cancer cell [1], this molecule showed a GI50 of 17.7 µM. Further, it took 66.3 µM to inhibit growth in the series on SW620 colon cancer cell [2] by half (GI50). Besides, the “G2/M at 1 μM(%) SW620” value in the series on SW620 colon cancer cell [3] was determined as 48%. Also, the “G2/M at 1 μM(%) HCT116” value in the series with HCT116 colon cancer cell [4] is 43%.
The like results for `COc1cc(C=C(C=O)C(C=O)=Cc2ccc(OC(=O)c3ccccc3)c(OC)c2)ccc1OC(=O)c1ccccc1` [Compound 27, 2,3-bis-(4-benzoyloxy-3-methoxy-benzylidene)succinaldehyde] were, in that order, 107 to 110 °C, 2.95 µM, 13.9 µM, 77% and 79%.
On to `CC(C)Oc1ccc(C=C(C=O)C(C=O)=Cc2ccc(OC(C)C)cc2)cc1` [Compound 29, 2,3-bis-(4-isopropyloxy-benzylidene)succinaldehyde], for which the melting point was in the range of 200 to 202 °C. This molecule yielded a GI50 in the series with HCT116 colon cancer cell [1] of 0.82 µM. In addition, the concentration for 50% growth inhibition (GI50) in the series on SW620 colon cancer cell [2] is 1.06 µM. Moreover, in the series on SW620 colon cancer cell [3], the “G2/M at 1 μM(%) SW620” value came out at 47%. The “G2/M at 1 μM(%) HCT116” value in the series on HCT116 colon cancer cell [4] amounted to 49%.
The like results for `O=CC(=Cc1ccc(OCc2ccccc2)cc1)C(C=O)=Cc1ccc(OCc2ccccc2)cc1` [Compound 31, 2,3-bis-(4-benzyloxy-benzylidene)succinaldehyde] were, in that order, 119 to 120 °C, 3.58 µM, 7.38 µM, 62% and 64%.
Consider `O=CC(=Cc1ccc(OC(=O)c2ccccc2)cc1)C(C=O)=Cc1ccc(OC(=O)c2ccccc2)cc1` [Compound 32, 2,3-bis-(4-benzoyloxy-benzylidene)succinaldehyde], for which the melting point was in the range of 207 to 208 °C. This molecule also yielded a GI50 in the series on HCT116 colon cancer cell [1] of 11.9 µM. In addition, growth with SW620 colon cancer cell [2] was halved (GI50) at 5.97 µM. Also, the “G2/M at 1 μM(%) SW620” value in the series with SW620 colon cancer cell [3] is 52%. The “G2/M at 1 μM(%) HCT116” value with HCT116 colon cancer cell [4] is recorded as 56%.
Take `O=CC(=Cc1ccc(OC(=O)c2ccccc2F)cc1)C(C=O)=Cc1ccc(OC(=O)c2ccccc2F)cc1` [Compound 33, 2,3-bis-(4-(2-fluorobenzoyloxy)benzylidene)succinaldehyde]: the melting point fell in the range of 197 to 199 °C. In the series with HCT116 colon cancer cell [1], this molecule yielded a GI50 of 7.43 µM. For the same molecule, the GI50 in the series with SW620 colon cancer cell [2] came out at 5.57 µM. Besides, the “G2/M at 1 μM(%) SW620” value in the series on SW620 colon cancer cell [3] is recorded as 71%. Moreover, the “G2/M at 1 μM(%) HCT116” value with HCT116 colon cancer cell [4] turned out to be 72%.
The molecule `O=CC(=Cc1ccc(OC(=O)c2ccc(Br)cc2)cc1)C(C=O)=Cc1ccc(OC(=O)c2ccc(Br)cc2)cc1` [Compound 34, 2,3-bis-(4-(4-bromobenzoyloxy)benzylidene)succinaldehyde] came in with a melting point of 223 to 225 °C. The same molecule had a GI50 in the series on HCT116 colon cancer cell [1] of 30.4 µM. The molecule also displayed a GI50 in the series on SW620 colon cancer cell [2] of 16.7 µM. The “G2/M at 1 μM(%) SW620” value in the series with SW620 colon cancer cell [3] was determined as 62%. In the series with HCT116 colon cancer cell [4], the “G2/M at 1 μM(%) HCT116” value worked out at 60%.
The like results for `O=CC(=Cc1cccc(OCc2ccc(Cl)cc2)c1)C(C=O)=Cc1cccc(OCc2ccc(Cl)cc2)c1` [Compound 36, 2,3-bis-(3-(4-chlorobenzyloxy)-benzylidene)succinaldehyde] were, in that order, 193 to 194 °C, 7.5 µM, 6.3 µM, 42% and 41%.
For the molecule `COc1ccc(COc2cccc(C=C(C=O)C(C=O)=Cc3cccc(OCc4ccc(OC)cc4)c3)c2)cc1` [Compound 37, 2,3-bis-(3-(4-methoxybenzyloxy)-benzylidene)succinaldehyde], the melting point lay in the range of 117 to 119 °C. In the series with HCT116 colon cancer cell [1], growth was halved (GI50) at 3.4 µM. Also, in the series with SW620 colon cancer cell [2], the concentration for 50% growth inhibition (GI50) was found to be 5.1 µM. For the same molecule, the “G2/M at 1 μM(%) SW620” value with SW620 colon cancer cell [3] came to 46%. Besides, the “G2/M at 1 μM(%) HCT116” value in the series with HCT116 colon cancer cell [4] is reported as 35%.
`O=CC(=Cc1ccc(OCc2ccc(Cl)cc2)cc1)C(C=O)=Cc1ccc(OCc2ccc(Cl)cc2)cc1` [Compound 38, 2,3-bis-(4-(4-chlorobenzyloxy)-benzylidene)succinaldehyde] had a melting point of 208 to 209 °C. This molecule registered a concentration for 50% growth inhibition (GI50) in the series with HCT116 colon cancer cell [1] of 3.8 µM. In addition, the 50% growth inhibitory concentration (GI50) with SW620 colon cancer cell [2] is 2.2 µM. For the same molecule, the “G2/M at 1 μM(%) SW620” value in the series on SW620 colon cancer cell [3] is reported as 53%. In addition, the “G2/M at 1 μM(%) HCT116” value in the series with HCT116 colon cancer cell [4] came out at 44%.
The like results for `COc1ccc(COc2ccc(C=C(C=O)C(C=O)=Cc3ccc(OCc4ccc(OC)cc4)cc3)cc2)cc1` [Compound 39, 2,3-bis-(4-(4-methoxybenzyloxy)-benzylidene)succinaldehyde] were, in that order, 218 to 220 °C, 3.7 µM, 6.8 µM, 48% and 38%.

Values taken from patent US6949682B2, “Cinnamaldehyde derivatives inhibiting growth of tumor cell and regulating cell cycle, preparations and pharmaceutical compositions thereof” (Korea Research Institute of Bioscience and Biotechnology, priority 2003, dated 2005).
